Experimental data as given in patent US20250051277A1, “DELIVERY OF THERAPEUTIC ALKALOID COMPOUNDS” (Sensorium Therapeutics, Inc., priority 2021, published 2025).
Like-named read-outs stand apart in the source and are kept apart here.

Tests used:
[1] = Method: Male C57/BL6 mice were used to evaluate each compound, with n=3 mice/time point.
Animals were administered through intravenous route with solution formulation at 2 mg/kg dose. […] Following blood collection, immediately, animals were sacrificed, and vena-cava was cut open and blood was drained. […] Brain samples were collected from set of three mice at each time point. […] Brain samples were homogenized using 2 volumes of ice-cold PBS (pH-7.4) of brain weight. […] Concentrations of compound (or compound and metabolite) in mouse plasma and brain samples were determined by fit for purpose LC-MS/MS method.

[2] = Hydrolysis Assay of Example A1 (conversion by LCMS); format: physicochemical; conditions: for Conversion (%) / Notes (hydrolysis): 0.5 mM, 0-24 h
Method: The hydrolysis kinetics was under a certain temperature and measured by LCMS at a certain time interval. The corresponding LCMS chromatograms were recorded and the conversions were calculated. The hydrolysis conditions and the data were summarized in below table. LCMS spectra were obtained using Agilent 1200/G1956A or SHIMADZU LCMS-2020. Standard LCMS conditions were as follows (running time 1.55 minutes): • Acidic condition: Mobile Phase A: 0.0375% TFA in water (v/v). Mobile Phase B: 0.01875% TFA in acetonitrile (v/v); Column: Kinetex EVO C18 30*2.1 mm, 5 μm. • Basic condition: Mobile Phase A: 0.025% NH3·H2O in water (v/v). Mobile Phase B: Acetonitrile; Column: Kinetex EVO C18 2.1×30 mm, 5 μm. • Conversion (%)=peak area 1/(peak area 1+peak area 2)*100%, peak area 1 is the integration of hydrolyzed product, peak area 2 is the integration of starting material.

[3] = Pharmacokinetics of 043 and 001 in mice after oral 043 (75 mg/kg); format: in vivo, male C57BL/6 mice; conditions: analyte = label, single oral administration of 043, 75 mg/kg, male C57BL/6 mice
Method: Total twelve male mice were used in this study. […] The formulation vehicle used was normal saline.
The plasma and brain concentration-time data of 043 and 001 was used for the pharmacokinetic analysis.
The extraction procedure for plasma/brain samples and the spiked plasma/brain calibration standards were identical:
A 25 μL of study sample plasma/brain (dilution applied to some samples) or spiked plasma calibration standard was added to individual pre-labeled micro-centrifuge tubes followed by 100 μL of internal standard prepared in acetonitrile (Glipizide-500 ng/mL) was added except for blank, where 100 μL of acetonitrile was added. Samples were vortexed for 5 minutes. Samples were centrifuged for 10 minutes at a speed of 4000 rpm at 4° C. Following centrifugation, 100 μL of clear supernatant was transferred in 96 well plates and analyzed using LC-MS/MS.

[4] = for 001 brain levels quantifiable up to: rat
Method: Brain samples were homogenized with PBS (W/V, 1:3). Plasma/brain samples were mixed with acetonitrile containing internal standard. The samples were vortexed then centrifuged at 4 degrees Celsius for 15 minutes. The supernatant was diluted with water (1:2 V/V) and analyzed by LC/MS/MS for quantitative analysis. […] Area under the curve (AUC) was calculated and divided by dose to account for molecular weight difference of prodrug and metabolite (AUC/D).

[5] = Oral dose pharmacokinetic study in mice (10 mg/kg); format: in vivo, male C57BL/6 mice
From the text: The formulation vehicle used was normal saline.

[6] = Plasma Stability Assay of Example A3, mouse plasma; conditions: 5 μM, 37° C., % of prodrug compound remaining
[7] = Plasma Stability Assay of Example A4, human plasma; conditions: 37° C., 10 μM
[8] = Plasma Stability Assay of Example A3, human plasma; conditions: 5 μM, 37° C., % of prodrug compound remaining
[9] = Plasma Stability Assay of Example A4, rat plasma; conditions: 37° C., 10 μM
[10] = in vivo; cited from earlier work
[11] = 2 mg/kg iv of labelled compound, mice
[12] = 10 mg/kg po of labelled compound, mice

## COc1ccc([C@@]23CCC(=O)C[C@@H]2N(C)CC3)cc1OC [Compound 001, mesembrine, reference compound]
[1]; [11]
  quantifiable levels of 001 in brain up to: 60 min
  quantifiable levels of 001 in plasma up to: 30 min
[1]; at 60, 120, 180 min, 2 mg/kg iv of 001, mice
  Plasma levels of 001: not detectable
[1]; at 120, 180 min, 2 mg/kg iv of 001, mice
  Brain levels of 001: not detectable
[2]; pH 2.0 in 0.01 M HCl to pH 7.4 in 20 mM PBS, 25° C. to 40° C.
  hydrolysis in the Hydrolysis Assay: did not further hydrolyze
[2]; pH = 2.0, 25° C., 0.01M HCl
  Conversion (%): 0%
  Notes (hydrolysis): Stable
[2]; pH = 2.0, 40° C., 0.01M HCl
  Conversion (%): 0%
  Notes (hydrolysis): Stable
[2]; pH = 7.4, 25° C., PBS (20 mM)
  Conversion (%): 0%
  Notes (hydrolysis): Stable
[2]; pH = 7.4, 40° C., PBS (20 mM)
  Conversion (%): 0%
  Notes (hydrolysis): Stable
[3]
  Brain concentrations quantifiable up to: 4 h
  brain exposure-Kp: 2.55
[3]; brain
  AUClast: 498.04 ng·h/mL
  Cmax: 602.12 ng/mL
  Tmax: 30 min
[3]; plasma
  AUClast: 195.38 ng·h/mL
  Cmax: 230.83 ng/mL
  Tmax: 30 min
[4]; 2 mg/kg iv of labelled compound
  001 brain levels quantifiable up to: 2 h
[5]; [12]
  001 quantifiable in brain up to: 60 min
  001 quantifiable in plasma up to: 2 h
[5]; at 90, 120, 180 min, 10 mg/kg po of 001, mice
  Brain levels of 001: not detectable
[5]; at 180 min, 10 mg/kg po of 001, mice
  Plasma levels of 001: not detectable
[5]; mice, oral 10 mg/kg
  bioavailability (% F): < 10%
[6]; 0 min
  Mouse Plasma Prodrug (%): 100.0%
[6]; 15 min
  Mouse Plasma Prodrug (%): >99%
[6]; 30 min
  Mouse Plasma Prodrug (%): 97.8%
[6]; 60 min
  Mouse Plasma Prodrug (%): >99%
[6]; 120 min
  Mouse Plasma Prodrug (%): >99%
[6]; 240 min
  Mouse Plasma Prodrug (%): >99%
[7]; time 0.0 min
  Compound 001 (%) (metabolite mesembrine), Human Plasma: 100.0%
[7]; time 10 min
  Compound 001 (%) (metabolite mesembrine), Human Plasma: >99%
[7]; time 30 min
  Compound 001 (%) (metabolite mesembrine), Human Plasma: >99%
[7]; time 60 min
  Compound 001 (%) (metabolite mesembrine), Human Plasma: >99%
[7]; time 120 min
  Compound 001 (%) (metabolite mesembrine), Human Plasma: >99%
[7]; time 240 min
  Compound 001 (%) (metabolite mesembrine), Human Plasma: >99%
[8]; 0 min
  Human Plasma Prodrug (%): 100.0%
[8]; 15 min
  Human Plasma Prodrug (%): >99%
[8]; 30 min
  Human Plasma Prodrug (%): >99%
[8]; 60 min
  Human Plasma Prodrug (%): >99%
[8]; 120 min
  Human Plasma Prodrug (%): >99%
[8]; 240 min
  Human Plasma Prodrug (%): >99%
[9]; time 0.0 min
  Compound 001 (%) (metabolite mesembrine), Rat Plasma: 100.0%
[9]; time 10 min
  Compound 001 (%) (metabolite mesembrine), Rat Plasma: >99%
[9]; time 30 min
  Compound 001 (%) (metabolite mesembrine), Rat Plasma: >99%
[9]; time 60 min
  Compound 001 (%) (metabolite mesembrine), Rat Plasma: 97.3%
[9]; time 120 min
  Compound 001 (%) (metabolite mesembrine), Rat Plasma: >99%
[9]; time 240 min
  Compound 001 (%) (metabolite mesembrine), Rat Plasma: 98.3%

## CCC(C)CC(=O)OC1=C[C@@H]2N(C)CC[C@]2(c2ccc(OC)c(OC)c2)CC1 (stereo partly drawn) [Compound 316, [(3aS,7aS)-3a-(3,4-dimethoxyphenyl)-1-methyl-3,4,5,7a-tetrahydro-2H-indol-6-yl]3-methyl pentanoate]
[4]; 2 mg/kg iv in rat
  conversion of prodrug to 001 in vivo: converts to 001 in vivo in rat
[4]; in vivo
  001 brain levels quantifiable up to: 3 h

## (−) mesembrine
[10]
  half-life in plasma: less than 2 hours
